Source: US20250051293A1, “NOVEL OXADIAZOLE DERIVATIVE AND USE THEREOF” (CELROS BIOTECH, priority 2021, published 2025)
pIC50: −log10 of the molar value.

Legend:
[1] = Metabolic stability in human liver microsomes; assay type: in vitro ADME; conditions: human liver microsomes 0.5 mg/ml, 1 μM, 30 minutes, 37° C., NADPH
Description: The stability of a drug may be predicted by using liver microsomes to determine the extent to which the drug is metabolized in the liver. […] Thus, a metabolic stability verification experiment was performed on the oxadiazole derivatives according to The present disclosure.
Specifically, sample treatment human liver microsomes (0.5 mg/ml), 0.1 M phosphate buffer (pH 7.4), and test compound at a concentration of 1 μM were added, and the mixture was pre-incubated at 37° C. for 5 minutes, followed by addition of NADPH Regeneration system solution and incubation at 37° C. for 30 minutes. An acetonitrile solution containing an internal standard (chlorpropamide) was then added to terminate the reaction, followed by centrifugation for 5 minutes (14,000 rpm, 4° C.). Then, the supernatant was injected into the LC-MS/MS system to analyze the substrate drug to evaluate the metabolic stability of the two compounds.
The HPLC column was an Acquity UPLC BEH Amide column (2.1×100 mm, 1.7 μm particle size; Waters, Ireland). The mobile phases were distilled water containing 0.1% formic acid (A) and acetonitrile containing 0.1% formic acid (B). Data analysis was performed using Analyst software (version 1.6.3).

[2] = tested on: MPTP-induced Parkinson's disease; experiment: MPTP-induced Parkinson's disease mouse model; assay type: in vivo, mice; conditions: for MPTP-induced increase in number of microglia (Iba1+ cells) in the substantia nigra and striatum / density of Th+ fibers in the striatum / number of dopaminergic neurons (Th+ cells) in the substantia nigra: 30 mg/kg oral for 8 days; for density of Th+ fibers in the striatum / number of dopaminergic neurons (Th+ cells) in the substantia nigra / pole test T-total / pole test T-turn: compared to the vehicle-treated group; for pole test T-total / pole test T-turn: Day 6 after MPTP, 30 mg/kg oral
Description: To evaluate the effect of compounds of Example 1 and Example 2 on MPTP (1-methyl-4-phenyl-1,2,3,6-tetrahydropyridine hydrochloride; Sigma-Aldrich)-induced Parkinson's disease, C57BL/6 male mice (9 weeks old) were randomly divided into three groups. • saline+vehicle • MPTP+vehicle • MPTP+compound of Example 1 or […] (30 mg/kg)
To induce Parkinson's disease, mice were intraperitoneally injected with MPTP (25 mg/kg) four times at 2-hour intervals, while control mice were treated with an equal volume of saline. The compounds of Example 1 or Example 2 were dissolved in a solvent consisting of 10% DMAC (dimethyl acetamide, Sigma-Aldrich), 10% Tween 80 (Sigma-Aldrich) and 80% saline (JW Pharmaceuticals). Mice were orally administered with 30 mg/kg of the compound of Example 1 or Example 2 starting 1 day prior to MPTP injection for 8 days.
Seven days after MPTP administration (one day after the last administration of the compound of Example 1 or Example 2), experimental animals were sacrificed by perfusion with saline (JW Pharmaceuticals) followed by 10% formalin (Sigma-Aldrich), and brain tissues were obtained. The tissues were cut into 30 μm thick slices using a cryostat (Leica) and stored in an anti-freezing solution (30% sucrose, 1% polyvinylpyrrolidone, and 30% ethylene glycol in 1×PBS) at −20° C.
Anti-tyrosine hydroxylase antibody (1:2000-4000, ABCAOM) was used to detect dopaminergic neurons and anti-Iba1 antibody (1:1000, Wako) was used to measure microglia. Biotinylated goat anti-rabbit antibody (VECTOR, BA-1000) was used as a secondary antibody and ABC solution (VECTOR, BA-1000) was used. The immunoreactive sections were then incubated with 3-3′ diaminobenzidine (DAB, Dako) to change the color to brown.
For the substantia nigra, six coronal sections, one every 150 μm, between −2.80 mm and −3.80 mm bregma were used, and for the striatum, three coronal sections between +0.98 mm and +0.50 mm bregma were collected. The coronal sections were stained with anti-tyrosine hydroxylase antibody or anti-Iba1 antibody and then analyzed by counting the number of stained cells or using ImagePro plus 7.0 software.
The mice were moved to a home cage where they were placed head up in the top of a 60 cm vertical pole with a diameter of 1 cm, and were then allowed to descend themselves and stay for about 15 seconds in the home cage.
The above procedure was repeated three times, all of which were videotaped, and the time for the mouse's head to turn completely downward (T-turn) and total time to descend to the floor (T-total) were analyzed.

human NOX2 = target: T1, human NOX2 (Homo sapiens, UniProt P04839); experiment: Lucigenin chemiluminescence assay, drosophila membranes expressing hNOX2; assay type: biochemical; conditions: average of three repeats
T1 construct: made in house; host or cells: transgenic Drosophila (Da-GAL4 driven UAS-hNOX2, dDuox RNAi background); membranes from homogenized flies
T1 sequence (P04839 2-570 limits assumed): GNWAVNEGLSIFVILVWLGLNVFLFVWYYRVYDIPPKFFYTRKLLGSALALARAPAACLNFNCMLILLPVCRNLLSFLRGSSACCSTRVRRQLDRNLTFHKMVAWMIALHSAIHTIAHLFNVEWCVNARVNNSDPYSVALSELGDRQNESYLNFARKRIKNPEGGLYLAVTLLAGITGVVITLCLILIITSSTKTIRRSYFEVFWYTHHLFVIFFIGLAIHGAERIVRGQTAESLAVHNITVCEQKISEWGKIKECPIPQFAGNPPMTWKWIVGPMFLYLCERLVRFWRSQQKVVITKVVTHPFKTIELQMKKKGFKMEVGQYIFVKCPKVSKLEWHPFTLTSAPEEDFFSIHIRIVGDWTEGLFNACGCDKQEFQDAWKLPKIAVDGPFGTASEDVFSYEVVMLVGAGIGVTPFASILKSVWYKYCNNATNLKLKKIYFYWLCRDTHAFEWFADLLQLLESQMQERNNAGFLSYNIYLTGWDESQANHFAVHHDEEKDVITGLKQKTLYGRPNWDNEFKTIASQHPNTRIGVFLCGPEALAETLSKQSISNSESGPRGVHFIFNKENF
Description: Human NOX isozymes were provided from transgenic flies expressing human NOX isozymes from the daughterless (Da)-GAL4 promoter. The genotype of each fly line is shown below. • human NOX2:UAS-hNOX2/UAS-dDuox-RNAi; Da-GAL4/+ • human NOX4:UAS-hNOX4/UAS-dDuox-RNAi; Da-GAL4/+
Transgenic flies were homogenized in PBS containing protease inhibitors (aprotinin, leupeptin) to obtain drosophila membranes of each NOX isozyme. The membranes were incubated with the compounds (100 μM, 10 μM, 1 μM, 0.1 μM, 0.01 μM, 0.001 μM, and 0 μM) for 10 minutes in a shaker. Then, to the membranes, a mixture of 500 μM NADPH (R-nicotinamide adenine dinucleotide 2′-phosphate reduced tetrasodium salt hydrate; Sigma-Aldrich) and 400 μM lucigenin (N,N′-dimethyl-9,9-biacridinium dinitrate; Sigma-Aldrich) in 1× HEPES (4-(2-hydroxyethyl)-1-piperazineethanesulfonic acid) buffer was added. Lucigenin chemiluminescence was detected at 1-minute intervals for 10 minutes using a multimode microplate reader (SpectraMax iD3, Molecular Devices). IC50 values were calculated with Graph-Pad Prism 5 (GraphPad Software).
The lucigenin chemiluminescence assay was performed with drosophila membranes expressing hNOX1, hNOX2, and hNOX4. The assay was repeated three times and the IC50 values were averaged.

Row | SMILES | Human (% ) remaining, microsomal stability [1] [%] | MPTP-induced increase in number of microglia (Iba1+ cells) in the substantia nigra and striatum [2] | density of Th+ fibers in the striatum [2] | number of dopaminergic neurons (Th+ cells) in the substantia nigra [2] | pole test T-total [2] | pole test T-turn [2] | pIC50 (human NOX2)
1 | O=C(Nc1nnc(-c2cccc(Cl)c2)o1)c1cc(F)cc(C(F)(F)F)c1 [Example 1, N-(5-(3-chlorophenyl)-1,3,4-oxadiazol-2-yl)-3-fluoro-5-(trifluoromethyl)benzamide] | 81.7 | effectively reduced | higher | higher | significant decrease | decrease | 7.05
2 | O=C(Nc1nnc(-c2ccccc2)o1)c1ccc(F)c(C(F)(F)F)c1 [Example 2, 4-fluoro-N-(5-phenyl-1,3,4-oxadiazol-2-yl)-3-(trifluoromethyl)benzamide] | >100 | effectively reduced | higher | higher | significant decrease | decrease | 6.59
